The source of these data is patent US20080242713A1, “Novel 5-cyano-prostacyclin derivatives as agents for the treatment of autoimmune diseases” (priority 2007, published 2008).

Experiment [1] deals with T1, EP4 receptor (Homo sapiens, UniProt P35408). The experiment can be described thus: cAMP accumulation assay in cells expressing EP4 (Biological Example 2, tetrazole derivatives). The class given is cell-based. The settings on record: cAMP luminescence, mean of triplicate. As to the method: (§1) Commercial cAMP accumulation assays are typically competitive immunoassays in which free cAMP from cell lysates competes for antibody binding against a “labeled” cAMP molecule. This positive signal is generated in direct proportion to the amount of free cAMP. In our assays cAMP standards and samples are pipetted into the wells of a microplate. An antibody specific cAMP is added to the wells. A substrate is added to the wells and luminescence develops in proportion to the amount of cAMP which accumulated during treatment of cells which express the EP4 receptor with standards and samples. The intensity of the luminescence is measured in a luminometer.
Results shown are the mean of triplicate determinations.
On the technique in general: Cyclic AMP is a second messenger, typically raised through Gs and lowered through Gi signalling.

Experiment [2] has as its target T1, EP4 receptor. Briefly: cAMP accumulation assay in cells expressing EP4 (Biological Example 1, diol derivative). Particulars: for RLU - background: cAMP luminescence, mean of triplicate. The experiment is classed as cell-based. As to the method:
as §1
The response of the EP4 expressing cells treated with the diol derivative is compared to Nileprost. Results shown are the mean of triplicate determinations.

T1 sequence (P35408 whole entry): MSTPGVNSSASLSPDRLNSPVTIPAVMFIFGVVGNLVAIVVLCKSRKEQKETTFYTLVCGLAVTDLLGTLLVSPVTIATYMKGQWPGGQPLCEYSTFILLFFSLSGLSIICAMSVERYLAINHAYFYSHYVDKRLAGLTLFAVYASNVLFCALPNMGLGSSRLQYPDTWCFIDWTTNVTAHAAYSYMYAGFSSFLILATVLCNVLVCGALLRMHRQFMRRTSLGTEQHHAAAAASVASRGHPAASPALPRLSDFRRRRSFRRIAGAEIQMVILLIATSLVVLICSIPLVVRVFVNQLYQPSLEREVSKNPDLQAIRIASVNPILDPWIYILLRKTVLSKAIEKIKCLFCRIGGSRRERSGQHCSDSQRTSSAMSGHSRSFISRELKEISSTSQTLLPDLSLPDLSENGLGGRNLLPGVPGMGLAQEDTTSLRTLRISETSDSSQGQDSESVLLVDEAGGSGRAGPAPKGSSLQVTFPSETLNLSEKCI

As to `CCCCC(C)[C@H](O)/C=C/[C@@H]1[C@H]2C/C(=C(\C#N)CCCc3nnn[nH]3)O[C@H]2C[C@H]1O` (stereo partly drawn) [Cpd. #1, α-[(3aR,4R,5R,6aS)-hexahydro-5-hydroxy-4-[(1E,3S)-3-hydroxy-4-methyl-1-octenyl]-2H-cyclopenta[b]furan-2-ylidene]-1H-tetrazole-5-2E-pentanenitrile], the RLU - background in experiment [1] (compound 0.005 nM) was 53600.00 RLU; in experiment [1] (compound 0.052 nM), 17642.67 RLU; in experiment [1] (compound 0.157 nM) it was 22533.33 RLU; in experiment [1] (compound 0.472 nM), 27365.33 RLU; in experiment [1] (compound 1.417 nM), 157357.33 RLU; in experiment [1] (compound 4.252 nM), 373856.00 RLU. Further, the RLU - background is 435810.67 RLU in experiment [1] (compound 12.757 nM); 484954.67 RLU in experiment [1] (compound 38.272 nM); 514858.67 RLU in experiment [1] (compound 114.815 nM); 606992.00 RLU in experiment [1] (compound 344.444 nM); 584826.67 RLU in experiment [1] (compound 1033.333 nM); 559813.33 RLU in experiment [1] (compound 3100.000 nM).

For the molecule `CCCCC(C)[C@@H](O)/C=C/[C@@H]1[C@H]2C/C(=C(/C#N)CCCc3nnn[nH]3)O[C@H]2C[C@H]1O` (stereo partly drawn) [Cpd. #3, α-[(3a R,4R,5R,6aS)-hexahydro-5-hydroxy-4-[(1E,3R)-3-hydroxy-4-methyl-1-octenyl]-2H-cyclopenta[b]furan-2-ylidene]-1H-tetrazole-5-2Z-pentanenitrile], the RLU - background stood at 76373.33 RLU in experiment [1] (compound 0.005 nM); 79997.33 RLU in experiment [1] (compound 0.052 nM); 83616.00 RLU in experiment [1] (compound 0.157 nM); 118397.33 RLU in experiment [1] (compound 0.472 nM); 273778.67 RLU in experiment [1] (compound 1.417 nM); 374920.00 RLU in experiment [1] (compound 4.252 nM). Besides, the RLU - background in experiment [1] (compound 12.757 nM) was determined as 522154.67 RLU; in experiment [1] (compound 38.272 nM), 697208.00 RLU; in experiment [1] (compound 114.815 nM), 773429.33 RLU; in experiment [1] (compound 344.444 nM) it was 813525.33 RLU; in experiment [1] (compound 1033.333 nM), 710053.33 RLU; in experiment [1] (compound 3100.000 nM) it was 714320.00 RLU.

As for `CCCCC[C@H](O)/C=C/[C@@H]1[C@H]2CC(=C(C#N)CCCc3nnn[nH]3)O[C@H]2C[C@H]1O` [Cpd. #4, α-[(3aR,4R,5R,6aS)-hexahydro-5-hydroxy-4-[(1E,3S)-3-hydroxy-1-octenyl]-2H-cyclopenta[b]furan-2-ylidene]-1H-tetrazole-5-pentanenitrile], the RLU - background in experiment [1] (compound 0.005 nM) came out at 146597.33 RLU; in experiment [1] (compound 0.052 nM), 83650.67 RLU; in experiment [1] (compound 0.157 nM), 40557.33 RLU; in experiment [1] (compound 0.472 nM) it was 46426.67 RLU; in experiment [1] (compound 1.417 nM), 82445.33 RLU; in experiment [1] (compound 4.252 nM), 158224.00 RLU. Further, the RLU - background in experiment [1] (compound 12.757 nM) was 429672.00 RLU; in experiment [1] (compound 38.272 nM), 554328.00 RLU; in experiment [1] (compound 114.815 nM), 813194.67 RLU; in experiment [1] (compound 344.444 nM) it was 909808.00 RLU; in experiment [1] (compound 1033.333 nM) it was 808477.33 RLU; in experiment [1] (compound 3100.000 nM), 820866.67 RLU.

Regarding `CCCCC(C)[C@H](O)/C=C/[C@@H]1[C@H]2C/C(=C(\C#N)CCCC(O)CO)O[C@H]2C[C@H]1O` (stereo partly drawn) [Cpd. #5, 2-[(3aR,4R,5R,6aS)-hexahydro-5-hydroxy-4-[(1E,3S)-3-hydroxy-4-methyl-1-octenyl]-2H-cyclopenta[b]furan-2-ylidene]-6,7-dihydroxy-, (2E)-heptanenitrile], the RLU - background in experiment [2] (compound 0.010 nM) was found to be 0 RLU; in experiment [2] (compound 0.152 nM), 0 RLU; in experiment [2] (compound 0.457 nM), 0 RLU; in experiment [2] (compound 1.372 nM) it was 152432 RLU; in experiment [2] (compound 4.115 nM), 532234 RLU; in experiment [2] (compound 12.346 nM), 912060 RLU. The RLU - background in experiment [2] (compound 37.037 nM) was 1019082 RLU; in experiment [2] (compound 111.111 nM), 1150386 RLU; in experiment [2] (compound 333.333 nM), 1291820 RLU; in experiment [2] (compound 1000.000 nM), 1260692 RLU; in experiment [2] (compound 3000.000 nM) it was 1201852 RLU; in experiment [2] (compound 9000.000 nM) it was 1206470 RLU. For the same molecule, in experiment [2] (result in words), the “EP4 agonist activity in the cAMP accumulation assay” value is reported as “dose-responsively showed EP4 agonist activity”.

On to `CCCCC(C)C(O)C=CC1C(O)CC2OC(=C(C#N)CCCC(=O)O)CC21` (stereo not shown) [Nileprost, 5-cyano-16-methylprostacyclin, reference compound], for which the RLU - background in experiment [2] (compound 0.010 nM) worked out at 0 RLU; in experiment [2] (compound 0.152 nM), 850786 RLU; in experiment [2] (compound 0.457 nM), 1291900 RLU; in experiment [2] (compound 1.372 nM), 1521826 RLU; in experiment [2] (compound 4.115 nM) it was 1626762 RLU; in experiment [2] (compound 12.346 nM), 1589698 RLU. In addition, the RLU - background in experiment [2] (compound 37.037 nM) is 1312998 RLU; in experiment [2] (compound 111.111 nM), 1258626 RLU; in experiment [2] (compound 333.333 nM) it was 1648306 RLU; in experiment [2] (compound 1000.000 nM), 1635488 RLU; in experiment [2] (compound 3000.000 nM) it was 1625442 RLU; in experiment [2] (compound 9000.000 nM), 1599712 RLU.
